The text below walks through data of US20200361987A1, “DEUTERATED TETRAPEPTIDES THAT TARGET MITOCHONDRIA” (STEALTH BIOTHERAPEUTICS CORP., priority 2017, published 2020).

The nature of data set [1]: Rat PK study, intravenous administration, plasma. It counts as in vivo. As to conditions: intravenous 1 mg/kg; for AUC(0-inf): read-out: AUCINF_obs; for clearance: read-out: Cl_obs; for Vd: read-out: Vss_obs. The method, then:
General Methods and Procedures of Rat PK Studies (Aptuit)
All test formulations will be prepared on the day of administration prior to dosing and used as soon as possible. All test formulations will be stored at room temperature, prior to administration.
The dose formulation(s) will be prepared and administered by volume. The target dose levels are detailed below:
Test substances discrete doses will be formulated in saline water at the final concentration of 0.5 mg/mL and intravenously administered at the volume of 2 mL/kg to rats.
Actual body weights of animals will be recorded on the day of dose administration. Doses volumes will be adjusted taking into account the weight of the animal at the time of dose administration. Doses formulations will be administered intravenously via tail vein (2 mL/kg); an aliquot of each dose formulation will be taken before administration. The actual dose received by each animal will be registered and residual volumes discarded.
After administration, serial blood samples will be collected from the lateral tail vein of each rat, then animals will be sacrificed humanely. Approximately 300 μL of Blood will be collected into EDTA tubes. Then exactly 240 μL of blood will be transferred into a micronic tube containing 10 μL of a solution (30 mg/mL NaF and 239 mg/mL Pefabloc) at each of the following time points post-dose (actual times will be recorded): 0.083, 0.25, 0.5, 1, 2, 4 and 8 hours after dosing. All blood samples will be thoroughly but gently mixed following collection and placed on wet ice. Blood will be centrifuged (3000 g for 10 min at approximately 4° C.) as soon as possible and two 50 μL aliquots of plasma will be transferred into micronic tubes. Residual blood will be discarded.
Plasma samples will be frozen at approximately −80° C. as soon as possible after preparation and stored until analysis.
Plasma samples will be assayed using a method based on protein precipitation with methanol followed by HPLC/MS-MS analysis with an optimized analytical method. Calibration standards (CS) and Quality control samples (QC) will be prepared on the day of analysis. Study samples, CS, QC and blanks will be spiked with an internal standard (IS) to improve the precision of the assay. Study samples will be analyzed together with CS, QC and blank samples (including also double blanks). From the calibration curve, the linear range of the analytical method will be determined and lower and upper limits of quantitation specified. Details of the conditions and methods used will be included in the report. All dosing solutions will be checked for accuracy and actual concentration will be reported.
The results for test substances in plasma will be subject to non-compartmental pharmacokinetic analysis using Phoenix WinNonlin 6.3 (see Section 8). The following parameters will be reported:
Calculated concentration of test item in the corresponding formulation (expressed as mg/mL). Dose levels (expressed as mg/kg). Actual collection times (expressed as hh:mm). Plasma concentrations (expressed as ng/mL). Quantitative information about 2 metabolites in Plasma. PK parameters (iv: Cmax, AUClast, AUCinf, CL, Vss, t1/2, if applicable; Abnormal clinical signs and relevant findings, if any.

Data set [2] concerns CL:DOPC 1:3 liposomes (cardiolipin). Description: Isothermal titration calorimetry (ITC) of test compound into CL:DOPC liposomes. It counts as binding. The following applies: 20 mM HEPES pH 7.4. The method, then:
Example 18: Isothermal Titration Calorimetry (ITC) Study
1. Preparation of CL:DOPC 1:3 Liposomes (CL Concentration 0.1 mM)
146 μl of cardiolipin solution (5.1 mg/mL in EtOH, Sigma-Aldrich, C1649-10MG) were mixed with 1.2 mg 0.05 mg (exact weight, see Table 1) of DOPC (Avanti Polar Lipids, 850375P) and 20 mM HEPES buffer pH=7.4. Resulting solution was diluted up to 5 mL with the same buffer, vortexed for 2 min and sonicated in bath sonicator for 30 min at room temperature. Liposomes were produced by manual extrusion (Avestin, The LiposoFast-Stabilizer with a LiposoFast-Basic) through a 100 nm filter (Avestin, PC membranes 0.1 m or Avanti Polar Lipids, PC membranes 0.1 μm, 610005). Extrusion was performed for 21 times. EtOH concentration in sample is 2.9%. Obtained CL:DOPC solutions were tested for homogeneity by DLS (Malvern Instruments Ltd, Zetasizer Nano ZSP, instrument with Malvern Instruments Ltd software 7.11) using the following parameters—medium: water; refractive index: 1.33; viscosity: 0.8872 cP; temperature: 25° C.; nanoparticles: liposomes; refractive index of materials: 1.60; detection angle of 173°, a wavelength of 633 nm. All measurements were performed in triplicate.
2. Preparation of Test Compound Solutions
2 mg or 14 mg (exact weight, see Table 1) of test compound were dissolved in 20 mM HEPES buffer (pH=7.4, contains 2,9% (V/V) of EtOH) to obtain 0.7 mM concentration (for exact volumes see Table 3). Obtained solution was vortexed for 2 min.
3. ITC Titration Experiments
Instrument cell was washed and purged with ≈100 μL of CL:DOPC liposomes solution. After washing cell was filled with CL:DOPC liposomes solution. Injection syringe was loaded with test compound solution. Injection volumes were set to values shown in Table 2 and DP values were set to 2.5 μcal/sec in all experiments. Time between injections—105 seconds. Titration of each compound is performed in triplicate, results are reported as mean value±standard deviation (see Table 4).

Several values for one entry are separate records, joined by “and”; a condition that tells them apart may be missing. Identical values can stand only once. Square brackets hold non-standard residues; d marks the D form. Peptide text beside a SMILES is read from it. Dmt = Cc1cc(O)cc(C)c1C[C@H](N)C(=O)O

As a reminder, the AUC(0-t) is exposure summed from dosing to a finite time, without extrapolation to infinity. A higher AUC(0-t) goes with more exposure. A word on the Cmax: it is the peak of the concentration-time curve. As usually defined, the Tmax is the time at which the peak concentration occurs. In general, half-life refers to the time needed for the level to fall by half in the phase considered. A higher half-life goes with slow decline. As for `Cc1cc(O)cc(C)c1C[C@H](NC(=O)[C@H](N)CCCNC(=N)N)C(=O)N[C@@H](CCCCN)C(=O)N[C@@H](Cc1ccccc1)C(N)=O` [Example 11 non-deuterated] (H-[dR][Dmt]KF-NH2), in data set [1], the AUC(0-t) was 2120 ng·h/mL, the Cmax came to 2930 ng/mL, the time of peak concentration (Tmax) turned out to be 4.98 min and the half-life was 48 min. In data set [1], the AUC(0-inf) stood at 2120 ng·h/mL, the clearance came to 7.97 mL/min/kg and the Vd is 0.29 L/kg.
In general, Kd refers to a measure of binding affinity in units of concentration. A higher Kd goes with a looser complex. For the compound `N=C(N)NCCC[C@@H](NC(=O)[C@@H](N)Cc1ccccc1)C(=O)N[C@@H](Cc1ccccc1)C(=O)N[C@@H](CCCCN)C(N)=O` [Example 1 non-deuterated, Phe-D-Arg-Phe-Lys-NH2, reference compound] (H-F[dR]FK-NH2), in data set [1], the AUC(0-t) is 1950 ng·h/mL, the maximum concentration (Cmax) was 3200 ng/mL, the Tmax was found to be 4.98 min and the half-life was 30 min. In data set [1], the AUC(0-inf) amounted to 1960 ng·h/mL, the clearance is 8.55 mL/min/kg and the Vd turned out to be 0.27 L/kg. In addition, in data set [2] (Average of replicates), the Ka was 194000 M⁻¹ and the affinity, expressed as Kd, was 5.39 µM. Moreover, in data set [2] (single replicate titration), the Ka was 230000 M⁻¹ and 141000 M⁻¹ and 211000 M⁻¹; the Kd was 4.35 µM and 7.09 µM and 4.74 µM.
`[2H]C([2H])(N)C([2H])([2H])C([2H])([2H])C([2H])([2H])[C@H](NC(=O)[C@H](Cc1ccccc1)NC(=O)[C@@H](CCCNC(=N)N)NC(=O)[C@@H](N)Cc1ccccc1)C(N)=O` [Example 1, Phe-D-Arg-Phe-(3,3,4,4,5,5,6,6-octadeuterium)-Lys-NH2]: in data set [1], the AUC(0-t) is 2300 ng·h/mL, the Cmax worked out at 4300 ng/mL, the Tmax came to 4.98 min and the half-life is 27 min. In data set [1], the AUC(0-inf) stood at 2310 ng·h/mL, the clearance worked out at 7.24 mL/min/kg and the Vd was 0.21 L/kg. In data set [2] (Average of replicates), this compound returned a Ka of 389000 M⁻¹ and a Kd of 2.62 µM. Moreover, in data set [2] (single replicate titration), the Ka was 473000 M⁻¹ and 384000 M⁻¹ and 366000 M⁻¹ and 331000 M⁻¹; the Kd is 2.11 µM and 2.6 µM and 2.73 µM and 3.02 µM.
As to `[2H]C([2H])(CN)C([2H])([2H])C[C@H](NC(=O)[C@H](Cc1c(C)cc(O)cc1C)NC(=O)[C@H](N)CCCNC(=N)N)C(=O)N[C@@H](Cc1ccccc1)C(N)=O` [Example 11, D-Arg-DMT-(4,4,5,5-d4)-Lys-Phe-NH2], in data set [1], the AUC(0-t) came to 2920 ng·h/mL, the peak level (Cmax) was 4680 ng/mL, the time to peak (Tmax) was determined as 4.98 min and the half-life was 35.3 min. Moreover, in data set [1], the AUC(0-inf) came to 2940 ng·h/mL, the clearance was found to be 5.7 mL/min/kg and the Vd amounted to 0.23 L/kg.
